Laboratory results taken from article PMC9737537, “In Vitro Susceptibility of HIV Isolates with High Growth Capability to Antiretroviral Drugs” (International Journal of Molecular Sciences, 2022).
Read-outs that look alike come from different tables or passages of the source.

Tests used:
Format in all cases: cell-based
[1] = tested on: HIV isolates with high growth capability; assay: Antiretroviral drug response (HIV-RNA copies in PHA-PBMC culture, 7 days), pooled HIV isolates; conditions: for suppression of viral yield in vitro: HIV isolates of Figure 5; for susceptibility of isolates / IC90 values relative to Cmin / Cmax: higher growth capability, without any known drug resistance-related mutation
Source text: (§1) The following nucleotide reverse transcriptase inhibitors were used: emtricitabine (Tokyo Chemical Industry, Tokyo, Japan), lamivudine (Tokyo Chemical Industry, Japan), tenofovir (Selleck Biotech, Tokyo Japan), tenofovir alafenamide (Selleck Biotech, Japan), tenofovir disoproxil fumarate (Tokyo Chemical Industry, Japan), and zidovudine (FUJIFILM Wako, Tokyo, Japan). As it was reported that tenofovir and its prodrugs (tenofovir disoproxil fumarate and tenofovir alafenamide) are measurable in plasma, the antiviral activity of these three synthetic drugs were assessed in vitro [25, 36]. In addition, one non-nucleotide reverse transcriptase inhibitor, efavirenz (Tokyo Chemical Industry, Japan); two protease inhibitors, atazanavir (Selleck Biotech, Japan) and lopinavir (Funakoshi Frontiers in Life Science, Tokyo, Japan); and four integrase inhibitors, bictegravir (Selleck Biotech, Japan), dolutegravir (Selleck Biotech, Japan), elvitegravir (EVG, Selleck Biotech, Japan), and raltegravir (Selleck Biotech, Japan) were analyzed. Representative HIV isolates and a laboratory strain of HIVpNL4-3 were screened for antiretroviral drugs. Briefly, PHA-PBMCs (1.5 × 10^6 cells) were pelleted at 1000 g for 5 min, resuspended with an HIV preparation (10^6 copies) in 100 µL volume, and incubated at 37 °C for 1 h. To remove unbound and non-infectious viruses, the cells were washed twice with RPMI1640 medium and then cultured in different concentrations of antiretroviral compounds (1 mL). The culture was carried out for 7 days, as described above, for growth capability assessment. All procedures were performed in triplicate.
To determine the susceptibility of HIV isolates with high growth capability to synthetic antiretroviral compounds, we used the in vitro susceptibility of the virus (IC90) and pharmacokinetics of an antiretroviral agent (compared to reported Cmin and Cmax).
HIV-RNA in the culture medium (140 µL) was extracted using a QIAamp Viral RNA Mini Kit (QIAGEN KK-Japan, Tokyo, Japan) and subjected to quantitative reverse transcription polymerase chain reaction (qRT-PCR). The amount of HIV-RNA was assayed using a Luna Universal One-Step qRT–PCR kit (New England Biolabs Japan, Tokyo, Japan) and forward (GagB-1F, 5′-[…]-3′, HXB2 position: 1359–1388) and reverse (GagB-1R, 5′-[…]-3′, 1500–1474) primers. The PCR signal was assessed by comparison with a standard curve (encompassing 10^2–10^8 copies/reaction of the in vitro-transcribed RNA transcripts).
The IC50 was calculated using a nonlinear regression curve fit of the dose response curves of each transformed drug concentration and normalized viral load (copies/mL) using GraphPad Prism software (version 8.0). The IC90 was determine using the IC50 and Hill slope factor from the curve fit in the online GraphPad calculator (https://www.graphpad.com/quickcalcs/ECanything1/, accessed on 1 October 2022) for effective concentration. The results are expressed as the mean IC90 of three values obtained in triplicate for each isolate.

[2] = tested on: HIV isolate DR1509-397; assay: Antiretroviral drug response in PHA-PBMC culture, isolate DR1509-397
Protocol: as §1, with “The activity of 13 synthetic antiretroviral compounds at concentrations ranging from 0.001 to 20 μM was evaluated against HIV isolates with diverse growth capabilities and without any known drug resistance-related mutation. The” for “The”, “Briefly, PHA-PBMCs (1.5 × 10^6 cells) were pelleted at 1000 g for 5 min, resuspended with an HIV preparation (10^6 copies) in 100 µL volume, and incubated at 37 °C for 1 h. To remove unbound and non-infectious viruses, the cells were washed twice with RPMI1640 medium and then cultured in different concentrations of antiretroviral compounds (1 mL). The culture was carried out for 7 days, as described above, for growth capability assessment. All procedures were performed in triplicate.” left out
HIV-RNA in the culture medium (140 µL) was extracted using a QIAamp Viral RNA Mini Kit (QIAGEN KK-Japan, Tokyo, Japan) and subjected to quantitative reverse transcription polymerase chain reaction (qRT-PCR). […] The PCR signal was assessed by comparison with a standard curve (encompassing 10^2–10^8 copies/reaction of the in vitro-transcribed RNA transcripts).
The IC50 was calculated using a nonlinear regression curve fit of the dose response curves of each transformed drug concentration and normalized viral load (copies/mL) using GraphPad Prism software (version 8.0). […] The results are expressed as the mean IC90 of three values obtained in triplicate for each isolate.

[3] = tested on: HIV isolate S1506-064; assay: Antiretroviral drug response in PHA-PBMC culture, isolate S1506-064; conditions: Human immunodeficiency virus 1, 168 h, high growth capability, no known mutation against tenofovir, 7 days
Protocol: as §1, with “The activity of 13 synthetic antiretroviral compounds at concentrations ranging from 0.001 to 20 μM was evaluated against HIV isolates with diverse growth capabilities and without any known drug resistance-related mutation. The” for “The”, “Briefly, PHA-PBMCs (1.5 × 10^6 cells) were pelleted at 1000 g for 5 min, resuspended with an HIV preparation (10^6 copies) in 100 µL volume, and incubated at 37 °C for 1 h. To remove unbound and non-infectious viruses, the cells were washed twice with RPMI1640 medium and then cultured in different concentrations of antiretroviral compounds (1 mL). The culture was carried out for 7 days, as described above, for growth capability assessment. All procedures were performed in triplicate.” left out

[4] = tested on: HIV isolate DR1605-400; assay: Antiretroviral drug response in PHA-PBMC culture, isolate DR1605-400; conditions: Human immunodeficiency virus 1, 168 h, high growth capability, no known drug resistance-related mutation, 7 days
Protocol: as §1, with “The activity of 13 synthetic antiretroviral compounds at concentrations ranging from 0.001 to 20 μM was evaluated against HIV isolates with diverse growth capabilities and without any known drug resistance-related mutation. The” for “The”, “Briefly, PHA-PBMCs (1.5 × 10^6 cells) were pelleted at 1000 g for 5 min, resuspended with an HIV preparation (10^6 copies) in 100 µL volume, and incubated at 37 °C for 1 h. To remove unbound and non-infectious viruses, the cells were washed twice with RPMI1640 medium and then cultured in different concentrations of antiretroviral compounds (1 mL). The culture was carried out for 7 days, as described above, for growth capability assessment. All procedures were performed in triplicate.” left out

[5] = tested on: HIV isolate DR1606-521; assay: Antiretroviral drug response in PHA-PBMC culture, isolate DR1606-521
Protocol: as §1, with “The activity of 13 synthetic antiretroviral compounds at concentrations ranging from 0.001 to 20 μM was evaluated against HIV isolates with diverse growth capabilities and without any known drug resistance-related mutation. The” for “The”, “Briefly, PHA-PBMCs (1.5 × 10^6 cells) were pelleted at 1000 g for 5 min, resuspended with an HIV preparation (10^6 copies) in 100 µL volume, and incubated at 37 °C for 1 h. To remove unbound and non-infectious viruses, the cells were washed twice with RPMI1640 medium and then cultured in different concentrations of antiretroviral compounds (1 mL). The culture was carried out for 7 days, as described above, for growth capability assessment. All procedures were performed in triplicate.” left out

[6] = tested on: HIV isolate DR1606-479; assay: Antiretroviral drug response in PHA-PBMC culture, isolate DR1606-479; conditions: Human immunodeficiency virus 1, 168 h, isolate with drug resistance-related mutation, 7 days
Protocol: as §1, with “The activity of 13 synthetic antiretroviral compounds at concentrations ranging from 0.001 to 20 μM was evaluated against HIV isolates with diverse growth capabilities and without any known drug resistance-related mutation. The” for “The”, “Briefly, PHA-PBMCs (1.5 × 10^6 cells) were pelleted at 1000 g for 5 min, resuspended with an HIV preparation (10^6 copies) in 100 µL volume, and incubated at 37 °C for 1 h. To remove unbound and non-infectious viruses, the cells were washed twice with RPMI1640 medium and then cultured in different concentrations of antiretroviral compounds (1 mL). The culture was carried out for 7 days, as described above, for growth capability assessment. All procedures were performed in triplicate.” left out

[7] = tested on: HIV isolate DR1510-726; assay: Antiretroviral drug response in PHA-PBMC culture, isolate DR1510-726; conditions: Human immunodeficiency virus 1, 168 h, isolate with drug resistance-related mutation, 7 days
Protocol: as §1, with “The activity of 13 synthetic antiretroviral compounds at concentrations ranging from 0.001 to 20 μM was evaluated against HIV isolates with diverse growth capabilities and without any known drug resistance-related mutation. The” for “The”, “Briefly, PHA-PBMCs (1.5 × 10^6 cells) were pelleted at 1000 g for 5 min, resuspended with an HIV preparation (10^6 copies) in 100 µL volume, and incubated at 37 °C for 1 h. To remove unbound and non-infectious viruses, the cells were washed twice with RPMI1640 medium and then cultured in different concentrations of antiretroviral compounds (1 mL). The culture was carried out for 7 days, as described above, for growth capability assessment. All procedures were performed in triplicate.” left out

[8] = Human immunodeficiency virus 1, lowest among the 13 compounds, isolate not specified, read-out: lowest IC90 values
[9] = Human immunodeficiency virus 1, read-out: 90% inhibitory concentration (IC90)

Structure (SMILES) | IC90 [1, 8] | susceptibility of isolates [1] | IC90 [1, 9] | IC90 values relative to Cmin / Cmax [1] | other results
COC(=O)N[C@H](C(=O)N[C@@H](Cc1ccccc1)[C@@H](O)CN(Cc1ccc(-c2ccccn2)cc1)NC(=O)[C@@H](NC(=O)OC)C(C)(C)C)C(C)(C)C [atazanavir] | 0.0013 ± 0.00112 µM | retained susceptibility with lower IC90 values | – | – | suppression of viral yield in vitro [1]: remarkably suppressed the viral yield
O=C(NCc1c(F)cc(F)cc1F)c1cn2c(c(O)c1=O)C(=O)N1[C@H]3CC[C@H](C3)O[C@@H]1C2 [bictegravir] | – | retained susceptibility with lower IC90 values | – | – | –
C[C@@H]1CCO[C@H]2Cn3cc(C(=O)NCc4ccc(F)cc4F)c(=O)c(O)c3C(=O)N12 [dolutegravir] | 0.0011 ± 0.00072 µM | retained susceptibility with lower IC90 values | – | – | suppression of viral yield in vitro [1]: remarkably suppressed the viral yield
O=C1Nc2ccc(Cl)cc2[C@@](C#CC2CC2)(C(F)(F)F)O1 [efavirenz] | – | – | 3.65 ± 0.77 µM | close to or above Cmin | IC90 relative to Cmin ([1]; isolates both with and without any known drug resistance-related mutation (Figure 5)): above Cmin
COc1cc2c(cc1Cc1cccc(Cl)c1F)c(=O)c(C(=O)O)cn2[C@H](CO)C(C)C [elvitegravir] | – | retained susceptibility with lower IC90 values | – | – | –
Nc1nc(=O)n([C@@H]2CS[C@H](CO)O2)cc1F [emtricitabine] | – | – | 0.68 ± 0.37 µM | close to or above Cmin | –
Nc1ccn([C@@H]2CS[C@H](CO)O2)c(=O)n1 [lamivudine] | – | – | 6.83 ± 3.96 µM | close to or above Cmin | –
Cc1cccc(C)c1OCC(=O)N[C@@H](Cc1ccccc1)[C@@H](O)C[C@H](Cc1ccccc1)NC(=O)[C@H](C(C)C)N1CCCNC1=O [lopinavir] | – | retained susceptibility with lower IC90 values | – | – | –
Cc1nnc(C(=O)NC(C)(C)c2nc(C(=O)NCc3ccc(F)cc3)c(O)c(=O)n2C)o1 [raltegravir] | – | retained susceptibility with lower IC90 values | – | – | –
CC(C)OC(=O)[C@H](C)N[P@](=O)(CO[C@H](C)Cn1cnc2c(N)ncnc21)Oc1ccccc1 [tenofovir alafenamide] | 0.0003 ± 0.00023 µM | retained susceptibility with lower IC90 values | – | – | activity against resistant isolates ([1]; isolates with drug resistance-related mutations in tenofovir disoproxil fumarate): active
C[C@H](Cn1cnc2c(N)ncnc21)OCP(=O)(O)O [tenofovir] | – | – | 2.05 ± 0.4 µM | above Cmax | IC90 ([2]; Human immunodeficiency virus 1, 168 h, high growth capability, no known drug resistance-related mutation, PHA-PBMC, 7 days, read-out: IC90): 2 ± 0.4 µM; IC90 ([2]; Human immunodeficiency virus 1, screened using two additional blood sources (three different blood sources, Figure 2B), read-out: mean IC90): 1.9 ± 0.04 µM; virus production in the presence of drug ([2]; tenofovir at 1 μM (close to Cmax)): hardly showed the decrease in virus production; IC90 [3]: 2.8 ± 0.47 µM; IC90 [4]: 1.4 ± 0.87 µM; IC90 ([5]; Human immunodeficiency virus 1, 168 h, isolate with drug resistance-related mutation, PHA-PBMC, 7 days, read-out: IC90): 8.3 ± 0.12 µM; IC90 ([5]; Human immunodeficiency virus 1, tenofovir-resistant isolate, above Cmax (Figure 4), read-out: concentration required to fully suppress the number of viral copies (printed as IC90)): 10 µM; IC90 [6]: 8.5 ± 0.1 µM; IC90 [7]: 7.7 ± 0.06 µM
Cc1cn([C@H]2C[C@H](N=[N+]=[N-])[C@@H](CO)O2)c(=O)[nH]c1=O [zidovudine] | 0.0015 ± 0.00111 µM | retained susceptibility with lower IC90 values | – | – | –
